Laboratory results as given in patent publication US9351955B2, “Compounds and pharmaceutical compositions thereof for the treatment of cystic fibrosis” (Galapagos NV, priority 2013, dated 2016).

What was measured:
Assay type in all cases: cell-based
[1] = target: T1, CFTR ΔF508 mutant (Homo sapiens, UniProt P13569, DEL508-508); assay: YFP-halide influx assay for the CFTR-ΔF508 mutation (384 well, CFBE41o- cells, FDSS/μCell); conditions: forskolin 10.67 μM, fluorescence after 36 seconds, read-out: EC50 measured by YFP-halide influx assay for the CFTR-ΔF508
T1 construct: expressed in transfected cells; host or cells: CFBE41o- (adenoviral transduction)
Procedure, shortened: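 CFBE41o- cells were adenovirally transduced with ΔF508 CFTR and the YFP H148Q/I152L reporter. Cells were then held 24 h at 27 °C or treated 24 h at 37 °C with a CFTR modulator. Iodide-induced quench was recorded for 2 min, and EC50 was derived from 1−F/F0 at 36 s against compound concentration.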

[2] = target: T2, CFTR-G178R (Homo sapiens, UniProt P13569, G178R); assay: YFP-halide influx assay for the CFTR-G178R; conditions: read-out: EC50 measured by YFP-halide influx assay for the CFTR-G178R
T2 construct: expressed in transfected cells
Excerpt: (§1) The YFP halide influx assay measures the functionality of the cystic fibrosis Transmembrane Conductance regulator (CFTR) channels. The assay is used to evaluate the capacity of compounds to increase the channel opening of existing mutant CFTR channels in the membrane. It makes use of the observation that the yellow fluorescent protein (YFP) variant YFP H148Q, I152L, F47L has its fluorescence substantially quenched by halide ions like Cl^− and I^−. (Galietta et al., 2001)
(§2) For this purpose, HEK293-cells are seeded in 96 well plates. During seeding, the cells are reverse-transfected with plasmid vectors that direct the expression of the CFTR G551D mutant and of the YFP reporter. Cells are incubated at 37° C., 5% CO2 for 24 hours so as to allow for sufficient expression of the CFTR protein.
(§3) The I^−-induced quenching of fluorescence is recorded immediately after injection of I^− for 7 seconds. The capacity of a compound to increase the channel opening is directly correlated with the decrease in fluorescence, and is expressed as (1−(fluorescence after 7 seconds (F)/fluorescence before injection (F0))) and an EC50 can be derived from a (1−F/F0) vs compound concentration plot.
(§4) Similar YHA assays were developed for other channel gating defective or channel conductance defective CFTR mutants to determine effect of compound on channel activity. Examples of mutants are G178R, G1349D, S549N, R117H, R334W. This assay is also used for additional class I CFTR mutants, including G542X, W1282X; class II mutants including N1303K, and for class III mutants including S1251N; or wild-type CFTR.

[3] = target: T3, CFTR G551D mutant (Homo sapiens, UniProt P13569, G551D); assay: YFP-halide influx assay for the CFTR-G551D mutation (HEK293 cells); conditions: HEK293 cells expressing CFTR G551D and YFP reporter; forskolin 10.67 μM; read-out: EC50 measured by YFP-halide influx assay for the CFTR-G551D
T3 construct: expressed in transfected cells; host or cells: HEK293 (reverse transfection with plasmids)
Procedure, shortened: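 HEK293 cells reverse-transfected with CFTR G551D and halide-sensitive YFP, expressed 24 h at 37 °C. Iodide-induced fluorescence quench recorded for 7 s after I^− injection; response as 1−F/F0, EC50 from concentration plot.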

[4] = target: CFTR G551D (Homo sapiens, UniProt P13569, G551D); assay: TECC assay, FRT cells stably transfected with G551D CFTR; conditions: high expression CFTR-G551D cells, several values in a cell = repeat determinations
Description: 7.2.3. FRT-CFTR G551D Protocol
For G551D recordings, Fish Rat Thyroid (FRT) cells stably transfected with G551D CFTR (a low CFTR-G551D expressing cell line and a high expressing CFTR-G551D cell line from Rosalind Franklin University of medicine and science, Chicago, Ill.) are plated on Transwell supports (Costar 6.5 mm Diameter, […]). The cells are grown for 8-10 d under liquid-liquid interface conditions prior to electrophysiological readings. For electrophysiological recording, the FRT-G551D cells are mounted in the TECC heating plate for electrophysiological measurement and kept at 37° C. The epithelia are bathed in hepes buffered culturing medium without FBS on both the basolateral and apical sides. Apical amiloride is used to inhibit the endogenous ENaC currents while forkolin is applied on both apical and basolateral side to stimulate CFTR. After forskolin triggering, compounds are added on both sides to test their potential for increasing CFTR gating. Measurements are done during a 10 minute timeframe with recordings every 2 min. The increase in ISC is used as a measure for the increased CFTR activity, EC50 values can be generated by measuring impact of different concentrations of compound on ISC on the cells, for this purpose each transwell is treated with a different compound concentration. Inh-172, an inhibitor specific for CFTR, is used to test the specificity of the tested compounds.
When subjected to this protocol, the following EC50 are measured.

[5] = target: T4, CFTR-S549N (Homo sapiens, UniProt P13569, S549N); assay: YFP-halide influx assay for the CFTR-S549N; conditions: CFTR-S549N mutant; read-out: EC50 measured by YFP-halide influx assay for the CFTR-S549N
T4 construct: expressed in transfected cells
Excerpt: as §1, §2, §3, §4

[6] = target: T5, CFTR-G1349D (Homo sapiens, UniProt P13569, G1349D); assay: YFP-halide influx assay for the CFTR-G1349D; conditions: CFTR-G1349D mutant; read-out: EC50 measured by YFP-halide influx assay for the CFTR-G1349D
T5 construct: expressed in transfected cells
Excerpt: as §1, §2, §3, §4

[7] = target: T6, CFTR-R117H (Homo sapiens, UniProt P13569, R117H); assay: YFP-halide influx assay for the CFTR-R117H; conditions: CFTR-R117H mutant; read-out: EC50 measured by YFP-halide influx assay for the CFTR-R117H
T6 construct: expressed in transfected cells
Excerpt: as §1, §2, §3, §4

[8] = target: T1, CFTR ΔF508 mutant; assay: YFP-halide influx assay for the CFTR-ΔF508 mutation (96 well, CFBE41o- cells); conditions: compounds of the invention, 96 well, forskolin 10.67 μM, read-out: EC50 measured by YFP-halide influx assay for the CFTR-ΔF508
Procedure, shortened: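 CFBE41o- cells were adenovirally transduced with CFTR ΔF508 and the halide-sensitive YFP H148Q/I152L. They were then corrected either at 27 °C for 24 h or with a CFTR modulator for 24 h at 37 °C. After iodide injection, YFP quenching over 7 s was expressed as 1−F/F0, and EC50 was derived from the concentration–response plot.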

[9] = target: T7, CFTR ΔF508 (Homo sapiens, UniProt P13569, DEL508-508); assay: TECC assay, primary bronchial epithelial cells from CF patients homozygous for CFTR ΔF508; conditions: primary bronchial epithelial cells, CFTR ΔF508; several values in a cell = repeat determinations
T7 construct: host or cells: primary bronchial epithelial cells from CF patients homozygous for ΔF508, pre-treated with VX809
Description: 7.2.1. Primary Bronchial Epithelial Cells Protocol
The TECC (Tranepithelial Clamp Circuit, EP-design) assay measures the functionality of the cystic fibrosis Transmembrane Conductance regulator (CFTR) by measuring the short circuit current (ISC) generated over the basolateral and apical membrane of lung epithelial cells. In TECC the transepithelial potential PD and transepithelial resistance (Rt) are measured in an open circuit and transformed to ISC using Ohm's law. 24 wells can be measured simultaneously allowing a higher throughput compared to Ussing chambers.
For this purpose, bronchial epithelial cells isolated from CF patients homozygous for the CFTR ΔF508 mutation (hAEC-CF, Epithelix) are plated on type IV collagen-coated Transwell supports (Costar). Human airway epithelia are generated by provision of an air-liquid interface for 21 days to form well-differentiated polarized cultures that resemble in vivo pseudo-stratified ciliated epithelium (Fulcher et al., 2005). In the case of the homozygous ΔF508 CFTR samples, the differentiated cells are treated with 3 μM VX809 (2626 South Loop West, Suite 225, Houston, Tex. 77054 USA, Cat n#51565) to allow sufficient expression of properly folded CFTR protein on the membrane (48 hours basolateral treatment and 24 hours apical treatment), prior to electrophysiological recordings. […] G551D/ΔF508, differentiated cells are used as such for the recordings.
Information on the compounds can be retrieved on the homozygous ΔF508 CFTR samples looking at increased CFTR activity when compounds are added in an acute mode or in a chronic mode. On G551D/ΔF508 CFTR heterozygous samples compounds are added in an acute mode to the differentiated cells.
For the acute mode, for electrophysiological recording, the human airway epithelia are mounted in the TECC heating plate for electrophysiological measurement and kept at 37° C. The epithelia are bathed in a NaCl-Ringer solution (120 mM NaCl, 25 mM NaHCO3, 1.2 mM CaCl2, 1.2 mM MgCl2, 0.8 mM KH2PO4, 0.8 mM K2HPO4, pH 7.4, 5 mM glucose) on both the basolateral and apical sides. Apical amiloride is used to inhibit the endogenous ENaC currents while forkolin is applied on both apical and basolateral side to stimulate CFTR. After forskolin triggering, compounds are added on both sides to test their potential for increasing CFTR gating. Measurements are done during a 20 minute timeframe with recordings every 2 minutes. The increase in ISC is used as a measure for the increased CFTR activity, EC50 values can be generated by measuring impact of different concentrations of compound on ISC on primary cells, for this purpose each transwell is treated with a different compound concentration. Inh-172, an inhibitor specific for CFTR, is used to test the specificity of the tested compounds.
For the chronic mode, the differentiated cells are treated with 3 μM VX809 (2626 South Loop West, Suite 225, Houston, Tex. 77054 USA, Cat n#51565) and potentiator compounds at different concentrations (48 hours basolateral treatment and 24 hours apical treatment), prior to electrophysiological recordings. For electrophysiological recording, the human airway epithelia are mounted in the TECC heating plate for electrophysiological measurement and kept at 37° C. […]

Sequence of CFTR G551D (P13569 whole entry G551D): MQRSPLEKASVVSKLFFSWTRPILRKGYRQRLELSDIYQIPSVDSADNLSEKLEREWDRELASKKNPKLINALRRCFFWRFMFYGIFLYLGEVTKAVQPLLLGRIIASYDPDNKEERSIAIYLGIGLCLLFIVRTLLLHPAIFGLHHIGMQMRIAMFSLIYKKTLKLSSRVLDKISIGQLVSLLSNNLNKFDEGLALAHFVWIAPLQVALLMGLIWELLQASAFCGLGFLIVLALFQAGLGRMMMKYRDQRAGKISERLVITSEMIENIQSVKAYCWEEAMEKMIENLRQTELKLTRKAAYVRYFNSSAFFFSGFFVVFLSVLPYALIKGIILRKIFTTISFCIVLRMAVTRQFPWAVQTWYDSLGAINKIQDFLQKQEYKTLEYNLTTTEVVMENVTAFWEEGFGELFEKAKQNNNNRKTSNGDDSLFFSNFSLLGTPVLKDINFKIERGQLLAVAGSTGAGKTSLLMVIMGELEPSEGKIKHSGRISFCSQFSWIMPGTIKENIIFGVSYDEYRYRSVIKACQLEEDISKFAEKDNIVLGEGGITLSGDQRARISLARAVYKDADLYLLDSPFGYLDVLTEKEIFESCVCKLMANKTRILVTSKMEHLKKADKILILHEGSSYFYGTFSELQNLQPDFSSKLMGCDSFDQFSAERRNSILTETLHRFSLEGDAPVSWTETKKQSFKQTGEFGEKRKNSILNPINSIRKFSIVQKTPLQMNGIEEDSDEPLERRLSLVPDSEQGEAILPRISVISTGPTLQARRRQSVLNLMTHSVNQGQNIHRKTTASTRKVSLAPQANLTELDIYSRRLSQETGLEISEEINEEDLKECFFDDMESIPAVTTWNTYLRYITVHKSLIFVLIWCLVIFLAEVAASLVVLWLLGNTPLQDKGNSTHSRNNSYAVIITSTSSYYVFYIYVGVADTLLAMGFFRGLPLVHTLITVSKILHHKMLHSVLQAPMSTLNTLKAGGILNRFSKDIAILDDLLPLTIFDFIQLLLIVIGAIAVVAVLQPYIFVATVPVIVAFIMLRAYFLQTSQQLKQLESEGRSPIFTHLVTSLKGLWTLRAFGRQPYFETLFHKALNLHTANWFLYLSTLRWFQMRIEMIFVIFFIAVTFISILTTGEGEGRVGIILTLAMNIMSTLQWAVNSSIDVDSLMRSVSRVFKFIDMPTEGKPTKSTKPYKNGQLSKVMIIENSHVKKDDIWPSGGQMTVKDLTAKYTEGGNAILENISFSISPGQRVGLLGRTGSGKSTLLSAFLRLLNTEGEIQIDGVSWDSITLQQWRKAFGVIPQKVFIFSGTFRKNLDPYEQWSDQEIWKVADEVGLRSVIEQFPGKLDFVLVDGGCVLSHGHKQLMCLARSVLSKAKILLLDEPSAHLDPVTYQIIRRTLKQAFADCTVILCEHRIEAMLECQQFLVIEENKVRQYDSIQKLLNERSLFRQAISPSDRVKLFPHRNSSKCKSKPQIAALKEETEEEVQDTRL
T3 sequence (P13569 whole entry G551D): as above
T6 sequence (P13569 whole entry R117H): as the sequence (P13569 whole entry G551D) above, with R117H, D551G counted along it
T5 sequence (P13569 whole entry G1349D): as the sequence (P13569 whole entry G551D) above, with D551G, G1349D counted along it
T1 sequence (P13569 with tags, fused parts or gaps DEL508-508): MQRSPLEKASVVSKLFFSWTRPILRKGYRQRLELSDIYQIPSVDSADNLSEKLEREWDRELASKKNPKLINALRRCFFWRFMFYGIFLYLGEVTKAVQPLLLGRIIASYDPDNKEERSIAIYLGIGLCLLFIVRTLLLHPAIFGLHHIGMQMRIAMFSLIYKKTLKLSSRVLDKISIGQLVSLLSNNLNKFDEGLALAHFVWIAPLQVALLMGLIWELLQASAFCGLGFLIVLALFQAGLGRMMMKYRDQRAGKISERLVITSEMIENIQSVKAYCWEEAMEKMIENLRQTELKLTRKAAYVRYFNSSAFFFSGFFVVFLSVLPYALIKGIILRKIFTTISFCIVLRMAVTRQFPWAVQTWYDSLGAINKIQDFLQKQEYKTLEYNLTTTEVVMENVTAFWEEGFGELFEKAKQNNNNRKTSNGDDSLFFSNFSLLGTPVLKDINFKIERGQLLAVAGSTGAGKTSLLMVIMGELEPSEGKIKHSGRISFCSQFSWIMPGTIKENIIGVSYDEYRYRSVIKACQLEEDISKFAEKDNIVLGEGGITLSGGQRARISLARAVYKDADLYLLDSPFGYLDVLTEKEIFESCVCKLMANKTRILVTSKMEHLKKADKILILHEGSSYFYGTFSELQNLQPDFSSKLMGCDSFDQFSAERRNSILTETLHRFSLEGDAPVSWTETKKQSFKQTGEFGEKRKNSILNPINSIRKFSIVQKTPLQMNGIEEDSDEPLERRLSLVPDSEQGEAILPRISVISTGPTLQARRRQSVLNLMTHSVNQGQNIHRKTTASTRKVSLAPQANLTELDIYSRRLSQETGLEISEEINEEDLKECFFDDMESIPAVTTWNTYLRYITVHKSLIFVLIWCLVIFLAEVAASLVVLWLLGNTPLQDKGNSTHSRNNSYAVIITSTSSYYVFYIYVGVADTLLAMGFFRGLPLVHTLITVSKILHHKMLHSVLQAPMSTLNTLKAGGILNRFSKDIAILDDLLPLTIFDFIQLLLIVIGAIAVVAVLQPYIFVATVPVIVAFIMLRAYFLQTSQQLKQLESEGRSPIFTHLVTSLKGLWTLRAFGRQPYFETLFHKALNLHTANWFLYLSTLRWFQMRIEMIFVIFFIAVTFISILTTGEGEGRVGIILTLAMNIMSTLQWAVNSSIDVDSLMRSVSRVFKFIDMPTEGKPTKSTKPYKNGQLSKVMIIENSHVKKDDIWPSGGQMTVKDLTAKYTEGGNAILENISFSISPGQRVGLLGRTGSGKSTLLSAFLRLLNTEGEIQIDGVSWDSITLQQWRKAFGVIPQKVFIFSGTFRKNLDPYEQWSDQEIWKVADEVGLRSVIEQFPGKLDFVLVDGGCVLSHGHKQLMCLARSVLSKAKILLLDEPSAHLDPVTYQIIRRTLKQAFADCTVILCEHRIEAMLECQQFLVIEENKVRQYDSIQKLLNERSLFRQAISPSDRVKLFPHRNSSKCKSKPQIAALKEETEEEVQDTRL
T2 sequence (P13569 whole entry G178R): as the sequence (P13569 whole entry G551D) above, with G178R, D551G counted along it
T4 sequence (P13569 whole entry S549N): as the sequence (P13569 whole entry G551D) above, with S549N, D551G counted along it
T7 sequence (P13569 with tags, fused parts or gaps DEL508-508): as the sequence (P13569 with tags, fused parts or gaps DEL508-508) above

| EC50 [1] [nM] | EC50 [2] [nM] | EC50 [3] [nM] | EC50 [4] [nM] | EC50 [5] [nM] | EC50 [6] [nM] | EC50 [7] [nM] | EC50 [8] [nM] | EC50 [9] [nM] | SMILES |
| --- | --- | --- | --- | --- | --- | --- | --- | --- | --- |
| 0.66 | 22.5 | 209 | 193 | 261 | 142 | 49.9 |  |  | CC(C)(C)CC(O)C(=O)Nc1sc2c(c1C(N)=O)CC(C)(C)OC2(C)C (single isomer, unassigned) [Compound 110, 2-[[2-hydroxy-4,4-dimethyl-pentanoyl]amino]-5,5,7,7-tetramethyl-4H-thieno[2,3-c]pyran-3-carboxamide] |
| 10.1 | 42.2 | 270 |  | 444 | 47.4 | 301 | 10 |  | Cc1[nH]nc(C(=O)Nc2sc3c(c2C(N)=O)CC(C)(C)OC3(C)C)c1Cl [Compound 34, N-(3-carbamoyl-5,5,7,7-tetramethyl-5,7-dihydro-4H-thieno[2,3-c]pyran-2-yl)-4-chloro-5-methyl-1H-pyrazole-3-carboxamide] |
| 2.44 | 44.1 | 183 | 43.7 | 120 | 118 | 180 | 3 |  | Cc1cn[nH]c1C(=O)Nc1sc2c(c1C(N)=O)CC(C)(C)OC2(C)C [Compound 35, N-(3-carbamoyl-5,5,7,7-tetramethyl-5,7-dihydro-4H-thieno[2,3-c]pyran-2-yl)-4-methyl-1H-pyrazole-3-carboxamide] |
| 6.67 | 54.4 | 730 |  | 293 | 120 | 435 |  | 54.4 | COCc1c[nH]nc1C(=O)Nc1sc2c(c1C(N)=O)CC(C)(C)OC2(C)C [Compound 105, N-(3-carbamoyl-5,5,7,7-tetramethyl-4H-thieno[2,3-c]pyran-2-yl)-4-(methoxymethyl)-1H-pyrazole-3-carboxamide] |
| 81.5 | 786 | 2530 | 62500 | 2610 | 1190 | 807 |  |  | CC1(C)Cc2c(sc(NC(=O)c3cnco3)c2C(N)=O)C(C)(C)O1 [Compound 136, N-(3-carbamoyl-5,5,7,7-tetramethyl-4H-thieno[2,3-c]pyran-2-yl)oxazole-5-carboxamide] |
| 62.5 | 3330 |  |  | 2370 | 3330 | 1580 |  | 502 | CC1(C)Cc2c(sc(NC(=O)C3(O)CCOCC3)c2C(N)=O)C(C)(C)O1 [Compound 154, 2-[(4-hydroxytetrahydropyran-4-carbonyl)amino]-5,5,7,7-tetramethyl-4H-thieno[2,3-c]pyran-3-carboxamide] |
